The values below come from patent US20230293517A1, “ANTAGONIST COMPOUNDS” (AdoRx Therapeutics Limited, priority 2020, published 2023).

Assay [1] concerns the target human Adenosine A1 receptor (Homo sapiens (Human), UniProt P30542). Nature of the assay: Adenosine receptor TR-FRET binding assay (A1). As to conditions: inhibition of binding of 100 nM CA200645, CHO cell membranes. The protocol:
(§1) Biological Example 1—Adenosine Receptor Time-Resolved Fluorescence Resonance Energy Transfer (TRFRET) Binding Assay
(§2) All FRET binding experiments were conducted at room temperature in white 384-well plates, in assay binding buffer containing 1×LabMed (Cisbio, France), 100 μg/mL saponin, 1% DMSO and 0.02% pluronic acid. Binding of the fluorescently labelled Adenosine receptor antagonist XAC (CA200645, FRET acceptor) to terbium-labelled A1, A2a, A2b and A3 adenosine receptors (FRET donors) was detected by time-resolved FRET due to the close proximity of the donor and acceptor in a binding event. To investigate the ability of unlabelled test compounds to bind to Adenosine A1, A2a, A2b and A3 receptors, dose response curves were constructed that determined the ability of a range of concentrations to inhibit the binding of 30 nM CA200645 to the A2b receptor and 100 nM CA200645 to the A1, A2a, and A3 receptor.
(§3) Serial dilution (1:3 dilutions) of test compounds in neat DMSO and transfer of a 400 nL sample of test compound into the assay plate was carried out using the Mosquito (TTP Labtech, UK). The compound samples were incubated for 2 hours at room temperature with a fixed concentration of CA200645 defined for each receptor (see above) and CHO cell membranes containing the human Adenosine A1 (0.5 μg/well), A2a (0.3 μg/well), A2b (1 μg/well) or A3 (1 μg/well) receptor in 40 μL of assay buffer. Total and non-specific binding of CA200645 was determined in the absence and presence of 10 μM XAC, respectively. Following 2 hours incubation, the level of CA200645 binding was detected on a Pherastar FSX (BMG Labtech, Germany) using standard TR-FRET settings. The terbium donor was excited with three laser flashes at a wavelength of 337 nm, and donor and acceptor emission was detected at 620 nm and 665 nm wavelengths, respectively. FRET ratios were obtained by multiplying the acceptor/donor ratio value by 10,000. Specific binding was determined by subtracting the non-specific binding FRET ratio from the total binding FRET ratio. Compound IC50 curves were analysed using GraphPad Prism 7.0 (GraphPad, USA) and Ki affinity values were determined from the obtained IC50 values using the method of Cheng and Prusoff.
For orientation: Time-resolved FRET reads energy transfer from a long-lived donor to a nearby acceptor.

Assay [2] concerns the target human Adenosine A2a receptor (Homo sapiens (Human), UniProt P29274). Briefly: Adenosine receptor TR-FRET binding assay (A2a). As to conditions: inhibition of binding of 100 nM CA200645, CHO cell membranes. The method, then: as §1, §2, §3
In assay [3] the target is human Adenosine A2b receptor (Homo sapiens (Human), UniProt P29275). Nature of the assay: Adenosine receptor TR-FRET binding assay (A2b). The settings on record: TR-FRET, inhibition of binding of 30 nM CA200645, CHO cell membranes. The protocol:
as §1, §2, §3

Assay [4] concerns the target human Adenosine A3 receptor (Homo sapiens (Human), UniProt P0DMS8). Nature of the assay: Adenosine receptor TR-FRET binding assay (A3). As to conditions: inhibition of binding of 100 nM CA200645, CHO cell membranes. The protocol:
as §1, §2, §3

Sequence of human Adenosine A1 receptor (P30542 whole entry): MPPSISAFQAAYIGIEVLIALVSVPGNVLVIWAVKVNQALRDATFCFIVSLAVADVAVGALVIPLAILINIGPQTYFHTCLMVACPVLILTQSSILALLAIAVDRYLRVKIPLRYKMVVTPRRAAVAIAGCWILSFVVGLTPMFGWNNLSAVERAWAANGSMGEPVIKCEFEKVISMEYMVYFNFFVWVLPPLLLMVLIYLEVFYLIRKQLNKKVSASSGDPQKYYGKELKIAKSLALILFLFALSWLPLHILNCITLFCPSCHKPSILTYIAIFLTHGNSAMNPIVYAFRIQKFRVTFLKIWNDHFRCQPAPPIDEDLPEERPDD
Sequence of human Adenosine A2b receptor (P29275 whole entry): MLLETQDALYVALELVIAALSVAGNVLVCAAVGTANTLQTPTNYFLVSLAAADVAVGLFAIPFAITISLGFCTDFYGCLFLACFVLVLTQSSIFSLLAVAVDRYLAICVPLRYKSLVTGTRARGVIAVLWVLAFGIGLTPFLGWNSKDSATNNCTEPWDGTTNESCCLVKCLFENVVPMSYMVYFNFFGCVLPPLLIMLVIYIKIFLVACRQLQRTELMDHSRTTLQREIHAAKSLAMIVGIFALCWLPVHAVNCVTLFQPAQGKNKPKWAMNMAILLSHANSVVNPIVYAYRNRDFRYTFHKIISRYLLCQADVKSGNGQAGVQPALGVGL
Sequence of human Adenosine A2a receptor (P29274 whole entry): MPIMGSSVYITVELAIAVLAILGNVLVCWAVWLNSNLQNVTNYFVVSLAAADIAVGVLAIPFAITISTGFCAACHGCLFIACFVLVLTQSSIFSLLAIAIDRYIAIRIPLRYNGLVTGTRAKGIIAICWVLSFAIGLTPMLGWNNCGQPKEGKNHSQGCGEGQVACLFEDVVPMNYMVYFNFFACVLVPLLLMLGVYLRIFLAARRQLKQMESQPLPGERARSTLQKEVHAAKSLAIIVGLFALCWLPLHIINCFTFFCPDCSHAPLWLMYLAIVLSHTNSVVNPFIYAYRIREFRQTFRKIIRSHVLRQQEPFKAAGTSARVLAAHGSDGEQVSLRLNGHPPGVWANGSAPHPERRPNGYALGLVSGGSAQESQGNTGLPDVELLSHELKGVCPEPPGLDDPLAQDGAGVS
Sequence of human Adenosine A3 receptor (P0DMS8 whole entry): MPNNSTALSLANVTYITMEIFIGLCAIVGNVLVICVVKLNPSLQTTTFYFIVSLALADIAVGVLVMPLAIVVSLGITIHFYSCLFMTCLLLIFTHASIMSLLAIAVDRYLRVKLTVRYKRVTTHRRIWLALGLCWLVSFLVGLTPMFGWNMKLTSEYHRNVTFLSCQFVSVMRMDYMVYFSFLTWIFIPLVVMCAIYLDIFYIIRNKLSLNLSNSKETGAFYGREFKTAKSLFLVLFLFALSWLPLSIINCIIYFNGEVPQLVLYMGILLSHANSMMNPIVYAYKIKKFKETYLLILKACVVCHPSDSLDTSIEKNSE

For `Cc1cc(-c2sc(NC(=O)N3CCCC3)nc2-c2cccc(C#N)c2)cc(Cl)n1` [Example 3.2], the inhibition constant Ki turned out to be 12 nM in assay [1], 0.4 nM in assay [2], 0.7 nM in assay [3] and 1040 nM in assay [4].

Turning to `Cc1cc(-c2sc(NC(=O)N3CCN[C@H](C(=O)O)C3)nc2-c2cccc(C#N)c2)cc(Cl)n1` [Example 3.5], the Ki in assay [1] was 434 nM; in assay [2], 11.6 nM; in assay [3], 11.4 nM; in assay [4] it was 928 nM.

For `Cc1cc(-c2sc(NC(=O)N3CCN[C@@H](C(C)(C)O)C3)nc2-c2cccc(C#N)c2)cc(Cl)n1` [Example 3.10], the inhibition constant (Ki) was 135 nM in assay [1], 8.17 nM in assay [2], 12.2 nM in assay [3] and 144 nM in assay [4].

Regarding `COCC1(C#N)CCN(C(=O)Nc2nc(-c3cccc(C#N)c3)c(-c3cc(C)nc(C)c3)s2)CC1` [Example 4.6, 4-Cyano-N-[4-(3-cyanophenyl)-5-(2,6-dimethyl-4-pyridyl)thiazol-2-yl]-4-(methoxymethyl)piperidine-1-carboxamide], the Ki in assay [1] amounted to 41 nM; in assay [2] it was 0.18 nM; in assay [3] it was 1.2 nM; in assay [4] it was 170 nM.

Regarding `Cc1cc(-c2sc(NC(=O)N3CCO[C@@H](CO)C3)nc2-c2cccc(C#N)c2)cc(C)n1` [Example 4.16, (2R)-N-[4-(3-Cyanophenyl)-5-(2,6-dimethyl-4-pyridyl)thiazol-2-yl]-2-(hydroxymethyl)morpholine-4-carboxamide], the inhibition constant (Ki) in assay [1] was 41 nM; in assay [2], 0.9 nM; in assay [3], 2.2 nM; in assay [4], 265 nM.

Turning to `Cc1cc(-c2sc(NC(=O)N3CCO[C@H](CO)C3)nc2-c2cccc(C#N)c2)cc(C)n1` [Example 4.21, (2S)-N-[4-(3-Cyanophenyl)-5-(2,6-dimethyl-4-pyridyl)thiazol-2-yl]-2-(hydroxymethyl)morpholine-4-carboxamide], the Ki turned out to be 10 nM in assay [1], 0.3 nM in assay [2], 1 nM in assay [3] and 265 nM in assay [4].

Regarding `Cc1cc(-c2sc(NC(=O)N3CCS(=O)(=O)CC3)nc2-c2cccc(C#N)c2)cc(C)n1` [Example 4.27, N-[4-(3-Cyanophenyl)-5-(2,6-dimethyl-4-pyridyl)thiazol-2-yl]-1,1-dioxo-1,4-thiazinane-4-carboxamide], the inhibitory constant (Ki) stood at 6 nM in assay [1], 0.1 nM in assay [2], 0.8 nM in assay [3] and 423 nM in assay [4].

On to `Cc1cc(-c2sc(NC(=O)N3CCN(CCO)C(=O)C3)nc2-c2cccc(C#N)c2)cc(C)n1` [Example 4.31, N-[4-(3-Cyanophenyl)-5-(2,6-dimethyl-4-pyridyl)thiazol-2-yl]-4-(2-hydroxyethyl)-3-oxo-piperazine-1-carboxamide], for which the Ki in assay [1] was 210 nM; in assay [2] it was 3.75 nM; in assay [3], 4.7 nM; in assay [4], 425 nM.

As to `Cc1cc(-c2sc(NC(=O)N3CC(C(C)(C)O)C3)nc2-c2cccc(C#N)c2)cc(C)n1` [Example 4.33, N-[4-(3-Cyanophenyl)-5-(2,6-dimethyl-4-pyridyl)thiazol-2-yl]-3-(1-hydroxy-1-methyl-ethyl)azetidine-1-carboxamide], the Ki in assay [1] stood at 62 nM; in assay [2] it was 1.91 nM; in assay [3] it was 5.9 nM; in assay [4], 410 nM.

In the case of `Cc1cc(-c2sc(NC(=O)N3CCN[C@@H](C(=O)O)C3)nc2-c2cccc(C#N)c2)cc(Cl)n1` [Example 5, (2R)-4-[[5-(2-Chloro-6-methyl-4-pyridyl)-4-(3-cyanophenyl)thiazol-2-yl]carbamoyl]piperazine-2-carboxylic acid], the inhibition constant Ki in assay [1] was found to be 601 nM; in assay [2], 5.75 nM; in assay [3], 5.5 nM; in assay [4] it was 696 nM.

On to `COC(=O)[C@H]1CN(C(=O)Nc2nc(-c3cccc(C#N)c3)c(-c3cc(C)nc(Cl)c3)s2)CCN1` [Example 5.1, Methyl (2R)-4-[[5-(2-chloro-6-methyl-4-pyridyl)-4-(3-cyanophenyl)thiazol-2-yl]carbamoyl]piperazine-2-carboxylate], for which the Ki in assay [1] was 45 nM; in assay [2] it was 0.62 nM; in assay [3], 1.6 nM; in assay [4], 229 nM.

`Cc1cc(-c2sc(NC(=O)N3CCN[C@@H](CO)C3)nc2-c2cccc(C#N)c2)cc(Cl)n1` [Example 5.3, (3R)-N-[5-(2-Chloro-6-methyl-4-pyridyl)-4-(3-cyanophenyl)thiazol-2-yl]-3-(hydroxymethyl)piperazine-1-carboxamide]: the inhibition constant (Ki) stood at 90 nM in assay [1], 2.31 nM in assay [2], 2.1 nM in assay [3] and 98 nM in assay [4].

`Cc1cc(-c2sc(NC(=O)N3CCN[C@@H](C(N)=O)C3)nc2-c2cccc(C#N)c2)cc(Cl)n1` [Example 5.7, (3R)-N1-[5-(2-Chloro-6-methyl-4-pyridyl)-4-(3-cyanophenyl)thiazol-2-yl]piperazine-1,3-dicarboxamide]: the inhibitory constant (Ki) came to 48 nM in assay [1], 2.9 nM in assay [2], 1.8 nM in assay [3] and 247 nM in assay [4].

As for `Cc1cc(-c2sc(NC(=O)N3CC[C@H](C(N)=O)C3)nc2-c2cccc(C#N)c2)cc(C)n1` [Example 6.3, (3S)-N1-[4-(3-Cyanophenyl)-5-(2,6-dimethyl-4-pyridyl)thiazol-2-yl]pyrrolidine-1,3-dicarboxamide], the inhibition constant Ki was determined as 32 nM in assay [1], 0.87 nM in assay [2], 1.5 nM in assay [3] and 125 nM in assay [4].

As for `Cc1cc(-c2sc(NC(=O)N3CC[C@@H](C(N)=O)C3)nc2-c2cccc(C#N)c2)cc(C)n1` [Example 6.8, (3R)-N1-[4-(3-Cyanophenyl)-5-(2,6-dimethyl-4-pyridyl)thiazol-2-yl]pyrrolidine-1,3-dicarboxamide], the Ki was determined as 23 nM in assay [1], 0.72 nM in assay [2], 1.1 nM in assay [3] and 312 nM in assay [4].

Regarding `Cc1cc(-c2sc(NC(=O)N3CC(=O)N4CCCCC4C3)nc2-c2cccc(C#N)c2)cc(C)n1` (centres unmarked) [Example 6.15, N-[4-(3-Cyanophenyl)-5-(2,6-dimethyl-4-pyridyl)thiazol-2-yl]-4-oxo-3,6,7,8,9,9a-hexahydro-1H-pyrido[1,2-a]pyrazine-2-carboxamide], the Ki is 263 nM in assay [1], 2.02 nM in assay [2], 5.9 nM in assay [3] and 259 nM in assay [4].

Turning to `Cc1cc(-c2sc(NC(=O)N3CCN4CCNC(=O)C4C3)nc2-c2cccc(C#N)c2)cc(C)n1` (centres unmarked) [Example 6.16, N-[4-(3-Cyanophenyl)-5-(2,6-dimethyl-4-pyridyl)thiazol-2-yl]-9-oxo-3,4,6,7,8,9a-hexahydro-1H-pyrazino[1,2-a]pyrazine-2-carboxamide], the inhibitory constant (Ki) in assay [1] worked out at 422 nM; in assay [2], 3.99 nM; in assay [3], 17.6 nM; in assay [4], 565 nM.

As to `Cc1cc(-c2sc(NC(=O)N3CC[S+]([O-])CC3)nc2-c2cccc(C#N)c2)cc(C(F)F)n1` [Example 6.19, N-[4-(3-Cyanophenyl)-5-[2-(difluoromethyl)-6-methyl-4-pyridyl]thiazol-2-yl]-1-oxo-1,4-thiazinane-4-carboxamide], the Ki was found to be 20 nM in assay [1], 0.61 nM in assay [2], 1.1 nM in assay [3] and 130 nM in assay [4].

As to `Cc1cc(-c2sc(NC(=O)N3CCC(n4cccn4)CC3)nc2-c2cccc(C#N)c2)cc(C)n1` [Example 6.21, N-[4-(3-Cyanophenyl)-5-(2,6-dimethyl-4-pyridyl)thiazol-2-yl]-4-pyrazol-1-yl-piperidine-1-carboxamide], the Ki turned out to be 6 nM in assay [1], 0.86 nM in assay [2], 1.3 nM in assay [3] and 96 nM in assay [4].

As for `Cc1cc(-c2sc(NC(=O)N3CCC(c4ncon4)CC3)nc2-c2cccc(C#N)c2)cc(C)n1` [Example 6.22, N-[4-(3-Cyanophenyl)-5-(2,6-dimethyl-4-pyridyl)thiazol-2-yl]-4-(1,2,4-oxadiazol-3-yl)piperidine-1-carboxamide], the inhibition constant (Ki) came to 4 nM in assay [1], 0.38 nM in assay [2], 1.8 nM in assay [3] and 107 nM in assay [4].

For orientation: Ki means a measure of affinity in units of concentration, obtained from inhibition or displacement.
